Assay results taken from US5314911A, “Immunosuppressive agent” (Shionogi Seiyaku Kabushiki Kaisha, priority 1992, dated 1994).
Values after ≈ are worked out from the molar mass of the structure shown.

Columns and labels:
[1] = tested on: LU-99; assay: Inhibition of cell growth (MTT); assay type: cell-based, Human
Method: (§1) Each cell defined in Table 3 was put in each well of a 96-well microtiter plate in one 0.1 ml-scale containing the defined number of cells and preincubated for one day under the same condition as in 1). PA-48153C (0.1 ml) was added to each well in such a manner that its final concentration was in a range from 0 to 5,000 ng/ml. After 3-4 days incubation, 25 μl of 6 mg/ml MTT [3-(4,5-dimethylthiazol-2-yl)-2,5-diphenyltetrazolium bromide] (Sigma) was added to each well. After further incubation at 37° C. for 4 hr under the same condition, formazan generated therein was dissolved by adding 50 μl of 20% […] (SDS) in 0.02N HCl and allowing to stand at 37° C. for 24 hr. An amount of formazan generated in proportion to the number of live cells was determined according to optical density analyzed by an immunoreader (Sanko Junyaku k.k.) equipped with a 570 nm-filter (reference to J. Immunol. Methods 65, 55-63 (1983)). IC50 (concentration inhibiting 50% cell growth) was calculated from the correlativity of PA-48153C concentration with optical density.

[2] = tested on: Con A reaction of mouse splenic cell; assay: Effect on mitogenic responses (Con A reaction of mouse splenic mononuclear cells, [3H]-TdR incorporation); assay type: cell-based, C3H/HeN mice
Method: Splenic mononuclear cells (5×10^5) from C3H/HeN mice were suspended in 0.2 ml of RPMI 1640 medium containing 10% fetal bovine serum and 5×10^-5 M 2-mercaptoethanol (RPMI/FCS) and plated 96-well microtiter plates. The cells were cultured with 5 μg/ml of Concanavalin A (Con A; Type IV, Sigma Chemical Co.) for 72 hr at 37° C. in a humidified atmosphere of 5% carbon dioxide and 95% of air. PA-48153C was dissolved in dimethyl sulfoxide (DMSO) and added to the mitogenic response. The final concentration was not more than 100 ng/ml. Eighteen hours before harvesting, 0.5 μCi of tritiated thymidine ([^3 H]-TdR) was added to each well. The cells were harvested onto glass filter paper using a semi-automated multiple cell harvester, and [^3 H]-TdR incorporation was determined by liquid scintillation counter.

[3] = tested on: Aspergillus fumigatus IFO 8866; assay: Antifungal activity, liquid doubling dilution method; assay type: cell-based; conditions: IFO8866, Sabouraud broth, 24 hr, 37° C., read-out: minimum inhibitory concentration (MIC)
Method: (§2) Antifungal activity of PA-48153C was determined according to the liquid doubling dilution method using Sabouraud or YNB broth.

[4] = tested on: Candida albicans KE-2; assay: as above; assay type: cell-based; conditions: KE2, YNB broth, 48 hr, 37° C., read-out: minimum inhibitory concentration (MIC)
Method: as §2

[5] = tested on: allo-MLR (C3H/HeN mouse splenic mononuclear cells with C57BL/6 mouse splenic mononuclear cells); assay: Allogenic mixed lymphocyte reaction (allo-MLR) in vitro, [3H]-TdR incorporation; assay type: cell-based; conditions: 144 h, 6 days, read-out: IC50 value inhibiting allo MLR
Method: Induction and assay of allo-MLR were performed in 96 well microtiter plates. C3H/HeN (H-2^k) mouse splenic mononuclear cells (5×10^5 cells in 0.1 ml of RPMI/FCS) were mixed with an equal volume of mitomycin C-treated (50 μg/ml, 37° C., 30 min, washed 3 times with RPMI 1640) C57BL/6 (H-2^b) mouse splenic mononuclear cells (5×10^5 cells) and incubated with RPMI/FCS in 96 well microtiter plate for 6 days under the same condition as described in 1). PA-48153C was added to the allo-MLR in such a manner that its final concentration was not more than 100 ng/ml. Eighteen hours before harvesting, 0.5 μCi of [^3 H]-TdR was pulsed to each well. The cells were harvested and assayed for allo-MLR by their ability to uptake [^3 H]-TdR incorporation.

[6] = tested on: P388/ADM; assay: Inhibition of cell growth (MTT); assay type: cell-based, Mouse
Method: as §1

[7] = tested on: tumor cells; assay: Inhibition of cell growth (MTT), summary over tumor cells; assay type: cell-based
Method: as §1

[8] = tested on: CCD-19Lu; assay: Inhibition of cell growth (MTT); assay type: cell-based; conditions: Human normal lung, MEM, 2 × 10^4 cells/well, 3-4 days, read-out: IC50 (concentration inhibiting 50% cell growth)
Method: as §1

[9] = tested on: P388; assay: Inhibition of cell growth (MTT); assay type: cell-based; conditions: Mouse leukemia, RPMI 1640, 5 × 10^2 cells/well, 3-4 days, read-out: IC50 (concentration inhibiting 50% cell growth)
Method: as §1

[10] = Solubility; assay type: physicochemical

C/C=C/C[C@H](C)[C@@H](OC)[C@@H](C)[C@H](O)C[C@H]1OC(=O)C=C[C@H]1CC (relative stereo) [PA-48153C, (5R*,6R*)-5-ethyl-5,6-dihydro-6-[(E)-(2R*,3S*,4R*,5S*)-2-hydroxy-4-methoxy-3,5-dimethyl-7-nonenyl]-2H-pyran-2-one]
IC50 ([1]; Lu-99, Human giant-cell carcinoma of lung, RPMI 1640, 2 × 10^3 cells/well, 3-4 days, read-out: IC50 (concentration inhibiting 50% cell growth)): 2.2 ng/mL (≈ 0.00678 µM)
IC50 to normal lung cell CCD-19Lu relative to that to giant-cell carcinoma of lung Lu-99 ([1]; ratio CCD-19Lu / Lu-99): at least 2,500 times
IC50 ([2]; Mus musculus, Con A 5 μg/ml, 72 hr): 4.8 ng/mL (≈ 0.0148 µM)
inhibition at 0.0017 µg/mL ([2]; Mus musculus, PA-48153C 1.7 ng/ml, Con A 5 μg/ml, 72 hr): 83.8%
inhibition at 0.0056 µg/mL ([2]; Mus musculus, PA-48153C 5.6 ng/ml, Con A 5 μg/ml, 72 hr): 61.6%
inhibition at 0.05 µg/mL ([2]; Mus musculus, PA-48153C 50.0 ng/ml, Con A 5 μg/ml, 72 hr): 94%
Radioactivity cpm ± SD ([2]; PA-48153C 1.7 ng/ml, Con A 5 μg/ml, 72 hr): 10,200 ± 451 cpm
Radioactivity cpm ± SD ([2]; PA-48153C 5.6 ng/ml, Con A 5 μg/ml, 72 hr): 24,200 ± 883 cpm
Radioactivity cpm ± SD ([2]; PA-48153C 50.0 ng/ml, Con A 5 μg/ml, 72 hr): 3,780 ± 141 cpm
inhibition of proliferative response to Con A (in words) ([2]; splenic mononuclear cell from normal mice): inhibited the proliferative response of splenic mononuclear cell from normal mice to Con A in a dose-dependent fashion
MIC [3]: 12500 ng/mL (≈ 38.5 µM)
MIC [4]: 50000 ng/mL (≈ 154 µM)
IC50 [5]: 3.1 ng/mL (≈ 0.00955 µM)
growth inhibition of multi-resistant carcinoma P388/ADM (in words) [6]: strongly inhibits the growth of multi-resistant carcinoma P388/ADM
IC50 ([6]; P388/ADM, Mouse leukemia (multi-resistant carcinoma), RPMI 1640, 5 × 10^2 cells/well, 3-4 days, read-out: IC50 (concentration inhibiting 50% cell growth)): 4.8 ng/mL (≈ 0.0148 µM)
growth inhibition of tumor cells (in words) [7]: strongly inhibits the growth of tumor cells
IC50 [8]: > 5000 ng/mL
IC50 [9]: 1.8 ng/mL (≈ 0.00555 µM)
Solubility in organic solvents ([10]; n-hexane, ethyl acetate, chloroform, methanol): soluble in n-hexane, ethyl acetate, chloroform, methanol
Solubility in water ([10]; water): insoluble in water
